Where two headings read alike, the source gives them in different places.
How the values were obtained:
[1] = tested on: MDA-MB-435 cells; assay: Proliferation (CFDA-AM esterase assay) of cells grown on SISgel, plastic or Matrigel, 48 h drug exposure; assay type: cell-based; settings: for EC50: Homo sapiens; for SI (EC50-P/EC50-S): ratio of EC50 on plastic versus SISgel
Description: The libraries were obtained from the NCI (Diversity Library I) comprised of 2,918 compounds and a 10,000 compound diversity library from ChemBridge, Inc. (DiverSet-EXP). The NCI library is no longer available in the form used here, but how it was constructed is described (http://dtp.nci.nih.gov/branches/dscb/diversity_explanation.html). The ChemBridge library is a subset (Set Code NM1024) of the full 50,000 compound library (http://www.chembridge.com/screening_libraries/diversity_libraries/). Compounds were diluted to 100 μM before use. SISgel was prepared as described previously from powdered porcine small intestine submucosa obtained from Cook Biotech (W. Lafayette, IN). It is a natural product that is used extensively in tissue engineering as a bioscaffold. J82 bladder cancer cells and other cell lines were obtained from the ATCC (Bethesda, MD). The basic principle is that cells grown on any ECM are, in general, expected to show higher resistance to anticancer compounds than when grown on plastic. Therefore, compounds that show a higher activity toward cancer cells on a normal ECM than on a plastic surface would be candidates to target suppressed, micrometastatic cells. Efficacy in vitro was assessed by plating 30,000 cells in 50 μL of high glucose DMEM with penicillin-streptomycin and 10 % fetal calf serum on SISgel in a 96-well plate containing 50 μL of gelled SISgel per well. Cells were allowed to attach and assume the SISgel phenotype for 48 h. A matching plate without SISgel was prepared 24 h later by pipetting 3,000 cells in 100 μL of high glucose DMEM with penicillin-streptomycin and 10 % fetal calf serum into each well of 96 well plate. The cells were allowed to attach and grow for 24 h. These numbers of cells gave approximately equal replication rates at the time drug was added for cells grown on the plastic surface or SISgel as determined by the fraction of S-phase cells identified by flow cytometry. The cells were exposed to drug in fresh medium for 48 h, at which time the cell number was determined using the CFDA-AM cellular esterase proliferation assay (cat. #C1354, Life Technologies). For screening the results are reported as the ratio of cell count of cells on the plastic surface to the cell count on SISgel. An initial difference of 1.5 fold identified potential hits. All potential hits were confirmed in triplicate. Those compounds that replicated were confirmed by a full dose–response study yielding an EC50 using five wells per drug concentration. Data were analyzed using nonlinear regression to a sigmoid curve with Prism 4 (GraphPad Software, Inc., LaJolla, CA). Potential hits that were confirmed by dose–response using J82 were also tested with MDA-MB-435 breast cancer, PC-3 metastatic prostate cancer, Capan1 pancreatic cancer and the J82 bladder cancer cell lines.

[2] = tested on: mice; assay: Toxicity / maximum tolerated dose in mice; settings: mice
[3] = in vivo; settings: mouse
[4] = tested on: cancer cells on SISgel or plastic; assay: Activity of leads and analogs on cancer cells grown on plastic vs SISgel (cell line not stated); assay type: cell-based; settings: for SR: ratio IC50-p/IC50-S; for Hit: YES/NO
Description: The NCI library is no longer available in the form used here, but how it was constructed is described (http://dtp.nci.nih.gov/branches/dscb/diversity_explanation.html). The ChemBridge library is a subset (Set Code NM1024) of the full 50,000 compound library (http://www.chembridge.com/screening_libraries/diversity_libraries/). Compounds were diluted to 100 μM before use. SISgel was prepared as described previously from powdered porcine small intestine submucosa obtained from Cook Biotech (W. Lafayette, IN). It is a natural product that is used extensively in tissue engineering as a bioscaffold. J82 bladder cancer cells and other cell lines were obtained from the ATCC (Bethesda, MD). […] Efficacy in vitro was assessed by plating 30,000 cells in 50 μL of high glucose DMEM with penicillin-streptomycin and 10 % fetal calf serum on SISgel in a 96-well plate containing 50 μL of gelled SISgel per well. Cells were allowed to attach and assume the SISgel phenotype for 48 h. A matching plate without SISgel was prepared 24 h later by pipetting 3,000 cells in 100 μL of high glucose DMEM with penicillin-streptomycin and 10 % fetal calf serum into each well of 96 well plate. The cells were allowed to attach and grow for 24 h. […] The cells were exposed to drug in fresh medium for 48 h, at which time the cell number was determined using the CFDA-AM cellular esterase proliferation assay (cat. #C1354, Life Technologies). For screening the results are reported as the ratio of cell count of cells on the plastic surface to the cell count on SISgel. An initial difference of 1.5 fold identified potential hits. All potential hits were confirmed in triplicate. […] Data were analyzed using nonlinear regression to a sigmoid curve with Prism 4 (GraphPad Software, Inc., LaJolla, CA). […]

[5] = tested on: 4T1 stem cells (CD44v3highALDH1high 4T1 cells); assay: Tumor cell growth inhibition of sphere-derived cancer stem cells (CellTiter-Glo); assay type: cell-based, mouse; settings: suspension culture, 5 days; read-out: EC50 4T1 stem cells in suspension culture
Description: Sphere formation to further increase the fraction of cancer stem cells was induced by suspending CD44v3highALDH1high 4T1 cells in 1:1 Matrigel/basal medium in a total of volume of 100 μl. Samples (5 × 10^4 cells) were then plated around the rims of wells in a 12-well plate and allowed to solidify at 37 °C for 10 min before 1 ml basal medium (with B27 plus 20 ng/mL EGF, 10 ng/mL FGF and 4 μg/mL insulin) was added. Medium was replenished every 3-days. Ten days after plating, spheres (tight, spherical, nonadherent masses >40 μm in diameter) per well were counted, and at least 100 spheres per group were measured. The number of spheres containing CD44v3highALDH1high 4T1 cells in each well and expressed as sphere forming units (SFU) as described previously. The number of SFUs per well was counted in triplicate wells for each condition.
To recover CD44v3highALDH1high 4T1 cells from the spheres, Matrigel–containing wells were treated with 1 mg/ml Dispase solution (Gibco). Spheres were then digested with trypsin and 0.05 % EDTA. CD44v3highALDH1high cells dissociated from spheres were counted by hemacytometer and replated to generate spheres of next generation. Serial passage of individual spheres was regularly performed in order to verify self-renewal capability of cells associated the spheres. Measurement of growth for CD44v3highALDH1high cells (dissociated from spheres) was also performed by incubating these cells in serum-free RPMI-1640 medium for 3-weeks using MTT-based growth assay as described previously.
To analyze tumor cell growth properties, sphere-derived CD44v3highALDH1high 4T1 cells were incubated in basal medium (with B27 plus 20 ng/mL EGF, 10 ng/mL FGF and 4 μg/mL insulin). Medium was replenished every 3-days. Twenty-one days after plating, the number of cell growth was then counted under a microscope at low magnification. In some cases, these sphere-derived CD44v3highALDH1high 4T1 cells were also treated with DT compounds for 5 days or doxorubicin (range 1 μM to 1 mM) for 5 days at 37 °C. The CellTiter-Glo® Luminescent Cell Viability Assay (Promega, Madison, WI) was utilized to determine the number of metabolically active cells based on the quantification of adenosine triphosphate (ATP). The percentage of […] relative to untreated controls was plotted as a linear function of drug concentration. The 50 % inhibitory concentration (IC50) was identified as the concentration of drug required to achieve a 50 % growth inhibition relative to untreated controls.
A stem cell–enriched cell population was prepared as described previously by sorting for ALDH1 and CD44v3. The identification of aldehyde dehydrogenase1 (ALDH1) activity from tumor–derived 4T1 Luc2-GFP cells (PerkinElmer, Waltham, MA) was conducted using the ALDEFLUOR kit (StemCell Technologies, Durham, NC). Specifically, tumor cells were suspended in ALDEFLUOR assay buffer containing ALDH1 substrate (BAAA, […] per 1 × 10^6 cells) and incubated for 30 min at 37 °C. As a negative control, 4T1 cells were treated with a specific ALDH1 inhibitor, […] diethylaminobenzaldehyde (DEAB). Next, for labeling cell surface marker, tumor–derived 4T1 cells were suspended in 100 μl ALDEFLUOR buffer followed by incubating with 20 μl allophycocyanin (APC)-labeled anti-CD44v3 antibody (recognizing the v3-specific domain of CD44) or APC-labeled normal mouse IgG (as a control) (BD Bioscience, San Jose, CA) for 15 min at 4 °C. For FACS sorting, tumor cells were incubated in PBS buffer followed by FACS (BD FACS Aria llu, BD Bioscience, San Jose, CA) sorting using dual-wavelength analysis as described previously. The parental cell line contained 2 % CD44v3highALDH1high cells but the final sorted cells contained 18 % CD44v3highALDH1high cells, a 9-fold enrichment.

[6] = MDA-MB-435 cells on SISgel, read-out: EC50-S
[7] = MDA-MB-435 cells on plastic, read-out: EC50-P
[8] = cells on SISgel, read-out: IC50-S
[9] = cells on plastic, read-out: IC50-p

COc1ccc(C2C3=C(CCCC3=O)NC3=C2C(=O)c2ccccc23)c(OC)c1OC (stereo not shown) [DT340, 10-(2,3,4-trimethoxyphenyl)-6,7,8,10-tetrahydro-5H-indeno[1,2-b]quinoline-9,11-dione]
EC50 [1, 6]: 117 µM
EC50 [1, 7]: 219 µM
SI (EC50-P/EC50-S) [1]: 1.9
doses at which highly toxic to mice [2]: less than 10 mg/kg
toxicity in mice [2]: dose-limiting toxicity
MTD [3]: < 10 mg/kg

O=S(=O)([O-])c1ccc(N=Nc2ccc(O)c3ccccc23)cc1.[Na+] [Orange 1]
IC50 [4, 8]: 1200 µM
IC50 [4, 9]: 657 µM
SR [4]: 0.55
EC50 [5]: 398 µM

COc1ccc(CC(=O)Oc2ccc3c(c2)C(C)=CC(C)(C)N3)cc1 [DT350, 2,2,4-trimethyl-1,2-dihydro-6-quinolinyl (4-methoxyphenyl)-acetate]
EC50 [1, 6]: 270 µM
EC50 [1, 7]: 1830 µM
SI (EC50-P/EC50-S) [1]: 6.8
doses at which highly toxic to mice [2]: less than 10 mg/kg
toxicity in mice [2]: dose-limiting toxicity
MTD [3]: < 10 mg/kg

CCN(CC)c1ccc(C(=C2C=CC(=[N+](CC)CC)C=C2)c2ccc(S(=O)(=O)[O-])cc2S(=O)(=O)[O-])cc1.[Na+] [Acid Blue 1]
IC50 [4, 8]: 194 µM
IC50 [4, 9]: 318 µM
SR [4]: 1.6

O=S(=O)([O-])c1ccc(N=Nc2c(O)ccc3cc(S(=O)(=O)[O-])ccc23)cc1.[Na+].[Na+] [Sunset Yellow FCF]
Hit [4]: YES
IC50 [4, 8]: 31 µM
IC50 [4, 9]: 67 µM
SR [4]: 2.2

O=S(=O)(O)c1ccc(N=Nc2ccc3c(S(=O)(=O)O)cccc3c2O)c2ccccc12.[Na+] [Chromotrope F4B]
Hit [4]: YES
IC50 [4, 8]: 50 µM
IC50 [4, 9]: 90 µM
SR [4]: 1.8

CCN(Cc1cccc(S(=O)(=O)[O-])c1)c1ccc(C(=C2C=CC(=[N+](CC)Cc3cccc(S(=O)(=O)[O-])c3)C=C2)c2ccc(S(=O)(=O)[O-])cc2)cc1.[Na+].[Na+] [Light Green SF Yellowish]
IC50 [4, 8]: 315 µM
IC50 [4, 9]: 631 µM
SR [4]: 2

Cc1ccc(N=Nc2c(O)c(S(=O)(=O)[O-])cc3cc(S(=O)(=O)[O-])ccc23)c(C)c1.[Na+].[Na+] [Acid Red 26]
IC50 [4, 8]: 604 µM
IC50 [4, 9]: 154 µM
SR [4]: 0.26

Cc1nc(N=Nc2ccc(S(=O)(=O)O)cc2S(=O)(=O)O)c(COP(=O)(O)O)c(C=O)c1O [PPADS]
IC50 [4, 8]: 293 µM
IC50 [4, 9]: 419 µM
SR [4]: 1.4

CC(=O)Nc1cc(S(=O)(=O)[O-])cc2cc(S(=O)(=O)[O-])c(N=Nc3ccccc3)c(O)c12.[Na+].[Na+] [Acid Red 1]
Hit [4]: YES
IC50 [4, 8]: 13 µM
IC50 [4, 9]: 33 µM
SR [4]: 2.6
